Laboratory results published in patent US20240336657A1, “G-ALPHA-S PEPTIDE INHIBITORS AND USES THEREOF” (The Regents of the University of California, priority 2021, published 2024).
Positions of bridges follow the written chain, without caps; N, C: chain ends. Non-standard residues stand in square brackets, D forms with d. Residues, ends and D or L forms follow the SMILES beside them.

Assays:
Gαs/Gβγ = biological target: T1, Gαs/Gβγ (Homo sapiens, UniProt P63092); assay: BRET2 based Gα Gβγ interaction assay in HEK293 cells (β2AR, isoproterenol); type: cell-based; conditions: pretreated 25 μM, 16 hours, 10 nM isoproterenol
T1 construct: expressed in transfected cells; host or cells: HEK293 cells
From the text: (§1) We next tested GD20-F10L in HEK 293 cells overexpressing both β2AR and Gαs/Gβγ. Rluc8 was inserted within a flexible loop region between the αB-αC helices of Gαs (FIG. 23J) and GFP2 was inserted at the N-terminus of Gγ2 to capture Gαβγ heterotrimer interaction. A decrease in the bioluminescence resonance energy transfer (BRET2) signal between labeled G protein subunits can detect Gαβγ dissociation (FIG. 21C) in live cells (Olsen et al., 2020). We examined Gαβγ trimer dissociation elicited by the GPCR agonist at various concentrations of cyclic peptides by monitoring the net BRET2 signal. In cells that were transiently transfected with a Gαs-coupled β2-adrenergic receptor (β2AR), GαsShort_Rluc8, […], and Gγ-GFP2, ISO application stimulated a basal net BRET response. […] This effect was GD20-F10L dose dependent (FIGS. 21D-21E). […] To assess the specificity of GD20-F10L at the G protein level, we tested it against the Gαi/Gβγ interaction. […]
(§2) 8 hours after plating in 96-well assay plates, media was replaced with 100 μL of cyclic peptide dilutions in DMEM with 1% dialyzed FBS. […] Plates were then read in a TECAN Spark 20 M plate reader with 395 nm (RLuc8-coelenterazine 400a) and 510 nm (GFP2) emission filters, at integration times of 1 s per well. Plates were read serially six times, and measurements from the fourth read were used in all analyses. […]

Gαi1/Gβγ = biological target: T2, Gαi1/Gβγ (Homo sapiens, UniProt P63096); assay: BRET2 based Gα Gβγ interaction assay in HEK293 cells (M2R, acetylcholine); type: cell-based; conditions: pretreated 25 μM, 16 hours, 100 nM acetylcholine
T2 construct: expressed in transfected cells; host or cells: HEK293 cells
From the text: as §1, §2

GppNHp-bound Gαs = GppNHp-bound Gαs (Homo sapiens, UniProt P63092); assay: Bio-layer interferometry (BLI) binding kinetics; set-up: hexahistidine (N, cleaved yes); made in house; host or cells: Escherichia coli BL21(DE3)
Protocol: BLI experiments were performed using an OctetRED384 instrument from ForteBio. All experiments were performed at 25° C. using BLI buffer (10 mM HEPES pH 7.4, 150 mM NaCl, 1 mM MgCl2, 0.05% Tween-20, 0.1% DMSO, 0.2 mM GppNHp or GDP). Cyclic peptides were diluted to a series of concentrations in BLI buffer plus 10 μM Biotin. Assays were conducted in Greiner 384well, black, flat bottom polypropylene plates containing the protein solutions, BLI buffer plus 10 μM Biotin for dissociation, and serial dilutions of cyclic peptides to be tested.
Biotinylated proteins were immobilized on Streptavidin biosensors by dipping sensors into plate wells containing protein solutions at a concentration of 100-150 nM. Protein loading is around 2-3 nm. Sensors loaded with proteins were moved and dipped into wells with BLI buffer plus 10 μM Biotin to block unlabeled Streptavidin. Association-dissociation cycles of compounds were started by moving and dipping sensors to cyclic peptides dilutions and BLI buffer plus 10 μM Biotin wells alternatively. Association and dissociation times were carefully determined to ensure full association and dissociation.
Raw kinetic data collected were processed with the Data Analysis software provided by the manufacturer using single reference subtraction in which buffer-only reference was subtracted (For GN13 analysis). Because GD20 analogs have a low level of background binding, we used a double reference subtraction (buffer-only reference and non-protein-loading reference) method to calculate their kinetics values. The resulting data were analyzed based on a 1:1 binding model from which kon and koff values were obtained and then Kd values were calculated.

T2 sequence (P63096 whole entry): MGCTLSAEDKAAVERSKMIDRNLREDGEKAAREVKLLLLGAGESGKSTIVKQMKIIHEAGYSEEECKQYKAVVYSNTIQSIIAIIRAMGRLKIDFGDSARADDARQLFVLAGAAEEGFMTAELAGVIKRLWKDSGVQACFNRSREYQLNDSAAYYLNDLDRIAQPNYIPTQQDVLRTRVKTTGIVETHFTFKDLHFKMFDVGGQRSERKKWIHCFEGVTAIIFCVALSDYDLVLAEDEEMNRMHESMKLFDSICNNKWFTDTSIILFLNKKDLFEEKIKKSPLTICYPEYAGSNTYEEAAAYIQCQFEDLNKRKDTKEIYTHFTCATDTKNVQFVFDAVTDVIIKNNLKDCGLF
T1 sequence (P63092 1-380 isoform P63092-2): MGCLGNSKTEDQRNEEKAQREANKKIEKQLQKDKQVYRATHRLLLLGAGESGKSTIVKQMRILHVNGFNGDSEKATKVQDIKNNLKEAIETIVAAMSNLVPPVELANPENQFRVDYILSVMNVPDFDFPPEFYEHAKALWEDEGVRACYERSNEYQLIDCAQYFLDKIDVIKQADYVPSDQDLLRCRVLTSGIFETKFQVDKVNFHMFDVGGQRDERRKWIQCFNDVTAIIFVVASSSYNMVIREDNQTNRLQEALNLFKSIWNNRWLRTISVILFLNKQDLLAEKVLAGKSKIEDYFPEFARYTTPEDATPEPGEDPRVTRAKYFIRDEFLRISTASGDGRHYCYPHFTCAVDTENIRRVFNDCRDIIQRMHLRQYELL

Q: With CC[C@H](C)[C@@H]1NC(=O)[C@H](CC(C)C)NC(=O)[C@@H](Cc2ccc(O)cc2)NC(=O)CSC[C@@H](C(=O)NCC(N)=O)NC(=O)[C@@H]2CCCN2C(=O)[C@H](CC(C)C)NC(=O)[C@H](CC(N)=O)NC(=O)[C@H](CC(C)C)NC(=O)[C@H](C)NC(=O)[C@H](Cc2c[nH]c3ccccc23)NC(=O)[C@H](CCC(N)=O)NC(=O)[C@H](CCCNC(=N)N)NC(=O)[C@H](Cc2ccccc2)NC(=O)[C@H]([C@@H](C)O)NC1=O [GD20-F10L] ({CH2CO}-[dY]LITFRQWALNLPCG-NH2; thioether N-14) as the compound, how does the “net BRET2 signal between Gαs and Gγ after isoproterenol” value (Gαs/Gβγ) read?
A: induced a greater net BRET2 signal

Q: What about the “net BRET2 signal change between Gαi and Gβγ after acetylcholine” value (Gαi1/Gβγ) of the same compound?
A: did not induce a net BRET2 signal change

Q: How did the koff (GppNHp-bound Gαs; GppNHp/Gαs) turn out when CC[C@H](C)[C@@H]1NC(=O)[C@H](C)NC(=O)[C@H](Cc2ccc(O)cc2)NC(=O)[C@H](C(C)C)NC(=O)[C@H](CO)NC(=O)[C@H](CCC(=O)O)NC(=O)[C@H](Cc2ccccc2)NC(=O)[C@@H](Cc2ccc(O)cc2)NC(=O)CSC[C@@H](C(=O)NCC(N)=O)NC(=O)[C@H](CC(C)C)NC(=O)[C@H]([C@@H](C)O)NC(=O)CNC(=O)[C@H](Cc2c[nH]c3ccccc23)NC1=O [GN13] ({CH2CO}-[dY]FESVYAIWGTLCG-NH2; thioether N-13) was run?
A: 0.0513 s⁻¹

Q: And the kon (GppNHp-bound Gαs; GppNHp/Gαs)?
A: 271000 M⁻¹ s⁻¹

Q: And the Kd (GppNHp-bound Gαs; immobilized GppNHp-bound Gαs)?
A: 190 ± 20 nM
